Measured values as given in patent publication US20090076136A1, “THERAPEUTIC AGENT” (priority 2003, published 2009).
Like-named read-outs stand apart in the source and are kept apart here.

Key:
[1] = tested on: mature adipocytes (3T3-L1 cells); assay: Synergistic enhancing action by polygodial and insulin on glucose uptake; format: cell-based; details: FIG. 21
Experimental: The amount of 2-deoxyglucose uptake into mature adipocytes stimulated with the sample in the adipocytes was determined partly in accordance with the method described in Example 1 as the evaluation of synergistic enhancing action by a low-concentration polygodial and a low-concentration insulin on glucose uptake.
The mature adipocytes were prepared according to the method described in Example 1.
After the termination of the culture, the medium was removed, and the cells were washed twice with a Dulbecco's modified Eagle's medium containing 0.1% (w/v) bovine serum albumin. Thereafter, the cells were cultured at 37° C. overnight in the presence of 5% carbonic dioxide gas. After the overnight culture, the cells were washed twice with a HEPES buffered saline (140 mM NaCl, 5 mM KCl, 2.5 mM MgSO4, 1 mM CaCl2, 20 mM HEPES-Na (pH 7.4)). The amount 0.9 mL of the same buffer was added thereto. The cells were cultured at 37° C. for 45 minutes. Subsequently, polygodial was added thereto so as to have a final concentration of 300 nM, and insulin was added thereto so as to have a final concentration of 0.05 μg/mL. The cells were further cultured for 30 minutes. […] In addition, a group without addition of the sample was used as a negative control. Thereafter, the amount of 2-deoxy-[1,2-^3H(N)]-glucose taken into the adipocytes was determined in the same manner as in the method described in Example 1.

[2] = tested on: mature adipocytes (3T3-L1 cells); assay: Enhancing action on glucose uptake: 2-deoxyglucose uptake into mature adipocytes; format: cell-based
Experimental: The induction of differentiation into mature adipocytes was carried out by partially modifying the method of Rubin C. S. et al. (JBC. 253 7570-7578, 1978). 3T3-L1 cells (ATCC CCL-92.1) were suspended in a 10% calf serum (manufactured by ICN)-containing Dulbecco's modified Eagle's medium (manufactured by Sigma, D6046) containing 200 μM ascorbic acid so as to have a density of 4×10^3 cells/mL, and the suspension was put in each well of a 12-well microtiter plate in an amount of 2 mL per well. The cells were cultured at 37° C. for 7 days in the presence of 5% carbon dioxide gas. On the seventh day, the medium was exchanged with […] of a 10% fetal bovine serum (manufactured by GIBCO)-containing Dulbecco's modified Eagle's medium containing 200 μM ascorbic acid, 0.25 μM dexamethasone, 10 μg/mL insulin (manufactured by TAKARA BIO INC.) and 0.5 mM 3-isobutyl-1-methylxanthine (manufactured by Nacalai Tesque, Inc., 19624-86). After 45 hours, the medium was exchanged with 2 mL of a 10% fetal bovine serum-containing Dulbecco's modified Eagle's medium containing 200 μM ascorbic acid and 5 μg/mL insulin. The medium was exchanged on after 2 days and 5 days, and the cells were cultured for 7 days, to give mature adipocytes.
As the evaluation of enhancing action on glucose uptake, and also as the evaluation of insulin-mimetic action, the amount of 2-deoxyglucose uptake into mature adipocytes stimulated with the sample in the adipocytes was determined.
After the termination of the culture, the medium was removed, and the cells were washed twice with a 0.1% (w/v) bovine serum albumin (manufactured by Sigma, A8022)-containing Dulbecco's modified Eagle's medium. Thereafter, 1 mL of the same medium was put to each well. The cells were cultured overnight at 37° C. in the presence of 5% carbon dioxide gas. After the overnight culture, the cells were washed twice with a HEPES buffered saline (140 mM NaCl, 5 mM KCl, 2.5 mM MgSO4, 1 mM CaCl2, 20 mM HEPES-Na (pH 7.4)), and 0.9 mL of the same buffer was added thereto. The cells were cultured at 37° C. for 75 minutes. […] […] Thereafter, 100 μL of a HEPES buffered saline containing 2-deoxy-[1,2-^3H(N)]-glucose (manufactured by PerkinElmer Life Sciences Inc., NET549A) and 1 mM 2-deoxyglucose (manufactured by Nacalai Tesque, Inc., 10722-11) was added thereto at a final concentration of 0.5 μCi/mL, and the cells were further cultured at 37° C. for 10 minutes. After the termination of the culture, the supernatant was removed, the cells were washed three times with a phosphate buffer cooled to 4° C., and 0.5 mL of a 1% Nonidet P-40-containing phosphate buffer was added to lyse the cells, whereby 2-deoxy-[1,2-^3H(N)]-glucose taken into the cells was eluted. The radioactivity was determined with a liquid scintillation counter LS6500 (manufactured by Beckmann) using 25 μL of the supernatant with Ultima Gold (manufactured by PerkinElmer Life Sciences Inc., 6013329) as a scintillation cocktail.

[3] = tested on: glucose transporter (mature adipocytes); assay: Influence of cytochalasin B on 2-deoxyglucose uptake in mature adipocytes; format: cell-based
Experimental: Specifically, as a sample, there was set a group with addition of a dimethyl sulfoxide solution of polygodial so as to have a final concentration of 3 μM. […] Furthermore, in each group, there was set a group with addition of cytochalasin B (manufactured by Nacalai Tesque, Inc., 10435-81) so as to have a final concentration 40 μM at the same time as the time of addition of the sample and insulin. Thereafter, the amount of 2-deoxy-[1,2-^3H(N)]-glucose taken into the adipocytes was determined in the same manner.

mouse = assay: Single-dose oral toxicity in mouse; format: in vivo; details: 1 g/kg weight
Experimental: No toxicity is found even when the above-mentioned effective ingredient used in the present invention is administered in an effective dose for the exhibition of its action.

ICR mice = details: for Blood Glucose Level, Before Administration of Sample: ICR mice fasted 18 hours, Mean ± Standard Error; for Blood Glucose Level, Before Glucose Tolerance Test: 1 hour after
Experimental: After fasting the mice for 18 hours, polygodial was dissolved in an olive oil so as to have a concentration of 0.3%, and the solution was forcibly orally administered to the mice at 10 mg/kg weight. An olive oil was administered to each of mice in the control group at 3.3 mL/kg weight in the same manner. After 1 hour from the administration, a 20% glucose solution was administered at 2 g/kg weight. Here, the glucose was administered in two ways, forcible oral administration and intraperitoneal administration. Before administration of the sample, before the glucose tolerance test, and after given periods of time after the glucose tolerance test, blood was collected from the vein of mouse tails, and a blood glucose level was determined.

KK-Ay mice = tested on: KK-Ay mice
Experimental: Pathological amelioration of polygodial was examined using a type II diabetes model mice. Experiments were carried out with ten male 5-week old KK-Ay mice (CLEA Japan, Inc.) per group. Polygodial was dissolved in an olive oil so as to have a concentration of 0.03%, and the solution was forcibly orally administered to the mice once a day at 1 mg/kg weight for consecutive days. An olive oil was administered to each of mice in the control group at 3.3 mL/kg weight in the same manner. On the day before the beginning of administration and on the twenty-first day, blood was collected from the vein of mouse tails, and a blood glucose level was determined with a simple blood glucose meter, ACCU-CHEK Compact (manufactured by Roche Diagnostics K.K.). In addition, on the twenty-second day, blood was collected from the abdominal aorta, and the insulin concentration in serum was determined with Lebis Insulin Kit (manufactured by Shibayagi Co., Ltd.).

[4] = polygodial 10 mg/kg orally, glucose 2 g/kg by forcible oral administration
[5] = polygodial 10 mg/kg orally, glucose 2 g/kg by intraperitoneal administration
[6] = 1 mg/kg weight orally once a day, KK-Ay mice

insulin
2-deoxy-[1,2-3H(N)]-glucose uptake compared to the negative control ([1]; insulin 0.05 μg/mL alone): enhancement of 2-deoxy-[1,2-^3H(N)]-glucose uptake was found
2-deoxy-[1,2-3H(N)]-glucose uptake compared to the negative control ([2]; positive control, final concentration 1 μg/mL): enhancement of 2-deoxy-[1,2-^3H(N)]-glucose uptake was found
2-deoxy-[1,2-3H(N)]-glucose uptake compared to the negative control ([3]; insulin 1 μg/mL, without cytochalasin B, FIG. 22): enhancement of 2-deoxy-[1,2-^3H(N)]-glucose uptake was found

CC1(C)CCC[C@]2(C)[C@@H](C=O)C(C=O)=CC[C@@H]12 [polygodial]
deaths after oral administration (mouse): no cases of deaths are found
Blood Glucose Level, Before Administration of Sample (ICR mice; glucose by forcible oral administration): 94 ± 7 mg/dL
Blood Glucose Level, Before Administration of Sample (ICR mice; glucose by intraperitoneal administration): 77 ± 4 mg/dL
Blood Glucose Level, Before Glucose Tolerance Test (ICR mice; polygodial 10 mg/kg orally, glucose by forcible oral administration): 126 ± 7 mg/dL
Blood Glucose Level, Before Glucose Tolerance Test (ICR mice; polygodial 10 mg/kg orally, glucose by intraperitoneal administration): 90 ± 7 mg/dL
Blood Glucose Level, 30 min. After Glucose Tolerance Test (ICR mice; [4]): 260 ± 15 mg/dL
Blood Glucose Level, 60 min. After Glucose Tolerance Test (ICR mice; [4]): 224 ± 18 mg/dL
Blood Glucose Level, 120 min. After Glucose Tolerance Test (ICR mice; [4]): 138 ± 9 mg/dL
Blood Glucose Level, 30 min. After Glucose Tolerance Test (ICR mice; [5]): 300 ± 56 mg/dL
Blood Glucose Level, 60 min. After Glucose Tolerance Test (ICR mice; [5]): 263 ± 34 mg/dL
Blood Glucose Level, 120 min. After Glucose Tolerance Test (ICR mice; [5]): 126 ± 10 mg/dL
Blood Glucose Level, 180 min. After Glucose Tolerance Test (ICR mice; [5]): 84 ± 5 mg/dL
action on the elevation in the blood glucose level (in words) (ICR mice; polygodial 10 mg/kg weight, both oral and intraperitoneal administrations of glucose): suppressive action
enhancing action on glucose uptake by simultaneous addition with insulin ([1]; polygodial 300 nM added simultaneously with insulin 0.05 μg/mL, versus either alone): synergistically increase
2-deoxy-[1,2-3H(N)]-glucose uptake compared to the negative control ([1]; polygodial 300 nM alone): enhancement of 2-deoxy-[1,2-^3H(N)]-glucose uptake was found
2-deoxy-[1,2-3H(N)]-glucose uptake compared to the negative control ([2]; final concentration 3 μM, 1 μM, 0.3 μM or 0.1 μM, FIG. 1): enhancement of 2-deoxy-[1,2-^3H(N)]-glucose uptake was found
action of ameliorating insulin resistance (KK-Ay mice; [6]): action of ameliorating insulin resistance was found
blood glucose level (in words) (KK-Ay mice; [6]): lowered
insulin concentration (in words) (KK-Ay mice; [6]): lowered
Blood Glucose Level, Twenty-First Day (KK-Ay mice; 1 mg/kg weight orally once a day, twenty-first day, KK-Ay mice, Mean ± Standard Error): 231 ± 36 mg/dL
Insulin (concentration in serum) (KK-Ay mice; 1 mg/kg weight orally once a day, twenty-second day, KK-Ay mice, Mean ± Standard Error): 8.4 ± 4 ng/mL
Blood Glucose Level, Previous Day (KK-Ay mice; day before the beginning of administration, KK-Ay mice, Mean ± Standard Error): 328 ± 25 mg/dL
changes in weight and general symptoms (KK-Ay mice; during the experimental period, 1 mg/kg weight orally once a day): no changes were found
2-deoxy-[1,2-3H(N)]-glucose uptake compared to the negative control [3]: enhancement of 2-deoxy-[1,2-^3H(N)]-glucose uptake was found
mediation of the enhancing action on glucose uptake [3]: mediated by a glucose transporter
